Here are results for 8 compounds from ChEMBL document CHEMBL4376903, “Cereblon Based Immunomodulatory Therapeutics” (ACS Med Chem Lett, 2020).

Type in all cases: cell-based
The target in assay [1] is T1, Protein cereblon/Estrogen receptor (Homo sapiens, UniProt P03372+Q96SW2). The experiment in a line: Protac activity at cereblon/ERalpha in human MCF7 cells assessed as induction of ERalpha protein degradation by Western blot analysis. (In general: Immunoblotting shows a protein as a band on a membrane.)
Target sequence in this assay (Q96SW2 whole entry, one chain of several): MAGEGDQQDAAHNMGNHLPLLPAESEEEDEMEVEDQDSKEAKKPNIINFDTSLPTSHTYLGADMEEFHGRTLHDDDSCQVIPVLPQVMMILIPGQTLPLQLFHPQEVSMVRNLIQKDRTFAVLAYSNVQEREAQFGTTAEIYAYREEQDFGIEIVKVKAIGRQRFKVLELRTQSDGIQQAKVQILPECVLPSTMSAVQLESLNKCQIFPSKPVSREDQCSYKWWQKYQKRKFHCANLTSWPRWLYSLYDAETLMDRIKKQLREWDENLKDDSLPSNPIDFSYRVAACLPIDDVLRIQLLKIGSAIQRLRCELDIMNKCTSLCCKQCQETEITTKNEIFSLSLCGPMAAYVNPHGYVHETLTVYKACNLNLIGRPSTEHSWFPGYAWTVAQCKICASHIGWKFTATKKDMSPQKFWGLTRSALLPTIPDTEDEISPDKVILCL
Assay [2] deals with T1, Protein cereblon/Estrogen receptor. The experiment in a line: Protac activity at cereblon/ERalpha in human MCF7 cells assessed as induction of ERalpha protein degradation by Western blot analysis relative to control.
Target sequence in this assay (Q96SW2 whole entry, looked up, one chain of several): as the sequence (Q96SW2 whole entry, one chain of several) above
For assay [3], the target named is T2, Estrogen receptor (Homo sapiens, UniProt P03372).
T2 sequence (P03372 whole entry): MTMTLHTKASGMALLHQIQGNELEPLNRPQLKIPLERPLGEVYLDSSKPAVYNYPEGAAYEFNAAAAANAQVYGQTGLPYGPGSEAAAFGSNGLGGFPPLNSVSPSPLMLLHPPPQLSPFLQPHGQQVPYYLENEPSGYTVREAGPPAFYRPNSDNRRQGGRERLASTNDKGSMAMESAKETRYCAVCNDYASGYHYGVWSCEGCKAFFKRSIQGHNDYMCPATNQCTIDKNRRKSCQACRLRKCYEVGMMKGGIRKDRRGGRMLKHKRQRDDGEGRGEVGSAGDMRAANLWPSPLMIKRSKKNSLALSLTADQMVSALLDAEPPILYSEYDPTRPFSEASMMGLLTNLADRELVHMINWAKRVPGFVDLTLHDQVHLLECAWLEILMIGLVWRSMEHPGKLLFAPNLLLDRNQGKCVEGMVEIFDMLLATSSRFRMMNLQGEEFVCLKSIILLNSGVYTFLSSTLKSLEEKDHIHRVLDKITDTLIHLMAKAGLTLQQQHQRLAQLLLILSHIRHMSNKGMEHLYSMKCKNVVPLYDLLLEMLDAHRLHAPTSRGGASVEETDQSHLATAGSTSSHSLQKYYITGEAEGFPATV
The experiment in a line: Inhibition of ERalpha in human T47D cells by ERE-driven luciferase reporter gene assay based target engagement assay. A general note: Reporter assays use an easily measured gene product as a stand-in for the process of interest.

A word on the DC50: it is the concentration giving 50% degradation. Usually Emax stands for the greatest response seen or fitted, relative to the assay's reference. The term IC50 denotes the concentration that gives 50% inhibition. Higher therefore signals a need for much substance. On to `COc1cc(N2CCN(CCC3(O)CC(Oc4ccc([C@@H]5c6ccc(O)cc6CC[C@@H]5c5ccccc5)cc4)C3)CC2)cc2c1C(=O)N(C1CCC(=O)NC1=O)C2` (some centres undefined), for which the DC50 in assay [1] was < 1 nM. Moreover, the Emax in assay [2] was > 75%. For the same compound, the IC50 in assay [3] was determined as 0.3 nM.
Taken in the same sequence, the figures for `COc1cc(N2CCN(CCCCCOc3ccc([C@@H]4c5ccc(O)cc5CC[C@@H]4c4ccccc4)cc3)CC2)cc2c1C(=O)N([C@@H]1CCC(=O)NC1=O)C2` were < 1 nM, > 75% and 0.37 nM.
With `COc1cc(N2CCN(CCC3CCN(c4ccc([C@@H]5c6ccc(O)cc6CC[C@@H]5c5ccccc5)cc4F)CC3)CC2)cc2c1C(=O)N(C1CCC(=O)NC1=O)C2` (some centres undefined), in assay [1], the DC50 lay in the range of 1 to 10 nM. The Emax in assay [2] was > 75%. Moreover, the IC50 in assay [3] turned out to be 0.7 nM.
Taken in the same sequence, the figures for `COc1cc(N2CCN(CCCCCOc3ccc([C@@H]4c5ccc(O)cc5CC[C@@H]4c4ccccc4)cc3)CC2)cc2c1C(=O)N([C@H]1CCC(=O)NC1=O)C2` were < 1 nM, > 75% and 0.49 nM.
Taken in the same sequence, the figures for `COc1cc(N2CCN(C3CC4CC(Oc5ccc([C@@H]6c7ccc(O)cc7CC[C@@H]6c6ccc(F)cc6)cc5)CC4C3)CC2)cc2c1C(=O)N(C1CCC(=O)NC1=O)C2` (some centres undefined) were < 1 nM, 50 to 75% and 0.82 nM.
Consider `COc1cc(N2CCN(CCCCCOc3ccc([C@@H]4c5ccc(O)cc5CC[C@@H]4c4ccccc4)cc3)CC2)cc2c1C(=O)N(C1CCC(=O)NC1=O)C2` (some centres undefined), for which the DC50 in assay [1] was in the range of 1 to 10 nM. The Emax in assay [2] was > 75%. The same compound yielded an IC50 in assay [3] of 0.79 nM.
`COc1cc(N2CCN(CC(=O)C3CC(Oc4ccc([C@@H]5c6ccc(O)cc6CC[C@@H]5c5ccccc5)cc4)C3)CC2)cc2c1C(=O)N(C1CCC(=O)NC1=O)C2` (some centres undefined): the DC50 in assay [1] was < 1 nM. Also, the Emax in assay [2] was > 75%. This compound also returned an IC50 in assay [3] of 0.7 nM.
On the same counts, the results for `O=C1CCC(N2Cc3cc(N4CCN(CCC5(O)CC(Oc6ccc([C@@H]7c8ccc(O)cc8CC[C@@H]7c7ccccc7)cc6)C5)CC4)cc(OC(F)F)c3C2=O)C(=O)N1` (some centres undefined) are < 1 nM, 50 to 75% and 0.5 nM.
